For assay [1], the target named is T1, LXRα ligand binding domain (LBD) (Homo sapiens, UniProt Q13133).
T1 construct: expressed in transfected cells; host or cells: HEK-293
T1 sequence (Q13133 164-447): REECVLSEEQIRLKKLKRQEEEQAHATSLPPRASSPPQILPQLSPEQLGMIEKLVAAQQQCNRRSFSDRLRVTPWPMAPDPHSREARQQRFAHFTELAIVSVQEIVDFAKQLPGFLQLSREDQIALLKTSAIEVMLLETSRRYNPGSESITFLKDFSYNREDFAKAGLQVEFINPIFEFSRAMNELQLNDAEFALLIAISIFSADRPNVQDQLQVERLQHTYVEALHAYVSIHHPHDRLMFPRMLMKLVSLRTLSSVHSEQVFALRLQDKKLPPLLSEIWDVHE
The experiment in a line: dual luciferase reporter gene assay with LXRα ligand binding domain in HEK-293 cells. It is filed as cell-based. As for the experimental part: The ligand binding domain (LBD) of LXRα (amino acids 164 to 447) or LXRβ (amino acids 154 to 461) was cloned into pBIND [Renilla/Amp] vector (Promega). Selection and amplification were performed in E-coli cells. Purification of the plasmids was performed with a plasmid purification kit (Qiagen). For transfection HEK-293 cells were plated in 96-well plates (TPP) at a density of 3.5 x 10^4 cells/well for 24 h. To investigate the ligand binding on LXRα ligand binding domain, 0.04 ng of renilla luciferase coding plasmide pGL4.75 (Promega), 0.04 ng of LXRα-LBD/GAL4-DBD plasmide and 80 ng of firefly luciferase coding plasmide pGL4.31 (Promega) were used in a total volume of 200 µL for each well. In LXRβ binding assay 40 ng of LXRβ-LBD/GAL4-DBD plasmide were applied in each transfection mix. Transfection was carried out for 4 h with Lipofectamine 2000 Transfection Reagent (Invitrogen) in Opti-MEM medium (Invitrogen). Ligand treatment was performed at different concentrations for 24 h. For lysis and detection dual-luciferase reporter gene assay system (Promega) and POLARstar Omega (BMG LABTECH) were used.

In the next assay the test system is foam cells. The experiment in a line: siRNA-mediated LXRα/β knockdown in foam cells with qPCR. Type of assay: cell-based, human. The note with it: 10 µM ligand for 24 h. As for the experimental part:
Target specificity of ligand-dependent gene expression effects was investigated in siRNA-mediated LXRα and β-knockdown foam cells with subsequent qPCR or microarray analysis. Therefore, 2 x 10^5 THP-1 cells/well were differentiated in 24-well plate and induced to foam cells prior to knockdown as described above. Foam cells were transfected using TransIT-TKO transfection reagent (Mirus Bio), for combined knockdown with 15 nM LXRα Silencer Validated siRNA (Ambion, ID 5458) and 15 nM LXRβ Silencer Select Validated siRNA (Ambion, ID s14684) and with 30 nM LXRα or LXRβ for individual knockdowns, respectively. As control we used 30 nM Silencer Select Negative Control #1 (Ambion). Transfection was carried out for 48 h and followed by treatment with 10 µM ligand or vehicle control for 24 h.
Total RNA isolation and purification was performed by using the RNeasy Mini Kit (QIAGEN) and RNase-Free DNase Set (QIAGEN). cDNA was generated by reverse transcription using the High Capacity cDNA Reverse Transcription Kit (Applied Biosystems). Gene expression was quantified using the SYBR Green PCR Master Mix (Applied Biosystems) and ABI 7900HT Fast Real Time PCR System (Applied Biosystems). In each reaction 0.8 ng/µL cDNA and 0.2 µM primers were used. Gene expression was calculated with the ΔΔCt-method. β-Actin was used for normalisation.

Another assay deals with macrophages. The experiment in a line: triglyceride content in macrophages (Triglyceride Assay Kit). Type of assay: cell-based, human. The note with it: 10 µM, 48 h. The method, then: THP-1 monocytes were plated out into 24-well plates (Nunc) at a density of 2 x 10^5 cells/well. After differentiation and treatment cells were lysed with 100 µL lysis buffer (PBS, 0.25 M NaCl, 1% Triton X-100). Total and free cholesterol were determined using the colorimetric enzymatic Amplex Red Cholesterol Assay Kit (Invitrogen). Triglycerides were quantified by Triglyceride Assay Kit (BioVision). For normalisation protein content was determined with Pierce 660 nm Protein Assay Reagent (Thermo Scientific).

The term EC50 denotes the concentration at which the effect is half-maximal. The low end stands for greater potency, the high end for weaker potency. Compound `C(=C\c1ccc(OCC2CO2)cc1)/c1ccccc1` (centres unmarked) [compound 1, 2-[[4-[(E)-styryl]phenoxy]-methyl]oxirane] came in with an EC50 in assay [1] (+DMSO, LXRα reporter gene activation) of 35 nM. The Efficacy in assay [1] (+DMSO, reporter gene transcription vs. T09) is recorded as 6%. Also, in assay [1] (reporter-gene assays with LXRα and LXRβ LBD), the “specificity LXRα vs. LXRβ” value is listed as “characteristic specificity for LXRα”. Moreover, the “gene expression of LXRα and ABCA1 after LXRα/β knockdown” value with foam cells is “higher dependency on the LXRα subtype”. For the same compound, the triglyceride level result in the assay on macrophages is given as “stayed unchanged”.

The record behind these values is patent publication EP2759295A1, “Foam cell specific Liver X Receptor (LXR) alpha agonist, SIRT1 inhibitors as well as p300 inhibitors as pharmaceutically active agents” (Max-Planck-Gesellschaft zur Förderung der Wissenschaften …, priority 2013, dated 2014).
